# Source: patent publication US7972815B2, “Method of producing sugar chain using human G4 polypeptide” (Kyowa Hakko Kirin Co., Ltd., priority 1999, dated 2011)
# Where two headings read alike, the source gives them in different places.
# What was measured:
# β3GnT = target: T1, β3GnT (Homo sapiens, UniProt Q9NY97); settings: reported values, Proc. Natl. Acad. Sci. USA, 96, 406 (1999), cited from earlier work
# T1 sequence (Q9NY97 1-397): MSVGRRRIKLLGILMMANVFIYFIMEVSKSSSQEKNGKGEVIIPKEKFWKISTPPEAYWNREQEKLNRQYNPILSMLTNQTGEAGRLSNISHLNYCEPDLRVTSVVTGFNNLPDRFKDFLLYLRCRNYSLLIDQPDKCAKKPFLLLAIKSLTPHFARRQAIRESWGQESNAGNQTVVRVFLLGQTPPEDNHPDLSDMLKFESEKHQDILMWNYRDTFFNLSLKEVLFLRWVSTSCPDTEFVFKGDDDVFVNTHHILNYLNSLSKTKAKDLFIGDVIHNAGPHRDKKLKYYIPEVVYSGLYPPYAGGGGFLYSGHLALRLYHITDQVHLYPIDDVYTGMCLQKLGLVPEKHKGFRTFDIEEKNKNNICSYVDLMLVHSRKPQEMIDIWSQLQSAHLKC
# [1] = target: T2, β1,3-N-acetylglucosaminyl transferase (G3) (Homo sapiens, UniProt Q9NY97); test: Substrate specificity of G3 with unlabeled oligosaccharides; assay type: biochemical; settings: unlabeled substrate, 37° C., 2 hours, activity for LNnT defined as 100%
# T2 construct: made in house; host or cells: Sf21 insect cells infected with recombinant baculovirus from pVL1393-F2G3
# T2 sequence (Q9NY97 31-397): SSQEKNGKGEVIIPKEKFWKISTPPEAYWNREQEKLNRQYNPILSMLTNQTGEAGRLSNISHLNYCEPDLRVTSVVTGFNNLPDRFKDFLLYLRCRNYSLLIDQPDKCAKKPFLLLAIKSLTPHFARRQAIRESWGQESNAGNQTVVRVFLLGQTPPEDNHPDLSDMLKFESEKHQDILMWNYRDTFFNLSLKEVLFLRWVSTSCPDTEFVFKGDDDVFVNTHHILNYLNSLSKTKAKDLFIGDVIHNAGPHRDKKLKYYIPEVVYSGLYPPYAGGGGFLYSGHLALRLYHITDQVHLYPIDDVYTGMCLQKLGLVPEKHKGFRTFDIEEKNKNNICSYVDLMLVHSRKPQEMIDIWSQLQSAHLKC
# Description: (§1) The reaction using the glycosyltransferase was carried out as follows. The reaction was carried out at 37° C. for 16 hours in 40 μl of an assay solution [50 mmol/l MOPS (pH 7.5), 5 mmol/l UDP-GlcNAc (SIGMA), 5 mmol/l MnCl2, […] and 10 μl of the above eluate]. Next, the reaction solution was treated at 100° C. for 5 minutes and then centrifuged at 10,000×g for 20 minutes to obtain the supernatant, and a portion thereof was analyzed using HPAE/PAD (High Performance Anion Pulsed Amperometoric Detection; manufactured by DIONEX). The specific method was carried out in the usual way [Anal. Biochem., 189, 151 (1990), J. Biol. Chem., 273, 433 (1998)].
# (§2) As substrates, the following unlabeled oligosaccharides were used: lactose (Galβ1-4Glc), N-acetyllactosamine (Galβ1-4GlcNAc, hereinafter referred to as “LacNAc” in some cases), LNnT, LNT and lacto-N-neohexaose (Galβ1-4GlcNACβ1-3Galβ1-4GlcNAcβ1-3Galβ1-4Glc, hereinafter referred to as “LNnH”).
# (§3) For each substrate, the reaction was carried using the assay solution with or without UDP-GlcNAc (sugar donor), and then HPLC was carried out and peaks appeared only in the assay solution containing UDP-GlcNAc were defined as products.
# (§4) In identifying the product, coincidence of its elution time with that of a standard sugar chain was used as the index. As the standard sugar chains, GlcNAcβ1-3Galβ1-4Glc, GlcNAcβ1-3Galβ1-4GlcNAc and GlcNAcβ1-3Galβ1-4GlcNAcβ1-3Galβ1-4Glc were used.
# Substrate specificity of the FLAG peptide-fused G3 polypeptide was examined by the method shown in Example 11(2). The enzyme reaction was carried out at 37° C. for 2 hours.
# [2] = target: T3, β1,3-N-acetylglucosaminyl transferase (G7) (Homo sapiens, UniProt Q9C0J1); test: Substrate specificity of G7 with unlabeled oligosaccharides; assay type: biochemical; settings: unlabeled substrate, 37° C., 15.5 hours, activity for LNnT defined as 100%
# T3 construct: made in house; host or cells: Sf21 insect cells infected with recombinant baculovirus from pVL1393-F2G7
# T3 sequence (Q9C0J1 56-378): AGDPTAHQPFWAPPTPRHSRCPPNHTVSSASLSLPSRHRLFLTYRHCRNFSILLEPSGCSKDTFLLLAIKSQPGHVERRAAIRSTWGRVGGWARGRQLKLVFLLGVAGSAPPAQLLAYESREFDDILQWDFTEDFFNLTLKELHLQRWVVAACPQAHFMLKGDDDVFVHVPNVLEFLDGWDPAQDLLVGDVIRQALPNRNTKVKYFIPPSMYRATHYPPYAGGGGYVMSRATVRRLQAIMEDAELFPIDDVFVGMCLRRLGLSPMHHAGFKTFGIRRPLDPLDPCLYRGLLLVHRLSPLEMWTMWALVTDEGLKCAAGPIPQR
# Description: as §1, §2, §3, §4
# Substrate specificity of the FLAG peptide-fused G7 polypeptide was examined using the method shown in Example 11(2). The enzyme reaction was carried out at 37° C. for 15.5 hours.
# [3] = target: T4, β1,3-N-acetylglucosaminyl transferase (G4) (Homo sapiens, UniProt Q9Y2A9, R328H); test: Substrate specificity of G4 with unlabeled oligosaccharides (HPAE/PAD); assay type: biochemical; settings: unlabeled substrate, 37° C., 16 hours, activity on LNnT defined as 100%
# T4 construct: made in house; host or cells: Sf21 insect cells infected with recombinant baculovirus from pVL1393-F2G4
# T4 sequence (Q9Y2A9 38-372 R328H): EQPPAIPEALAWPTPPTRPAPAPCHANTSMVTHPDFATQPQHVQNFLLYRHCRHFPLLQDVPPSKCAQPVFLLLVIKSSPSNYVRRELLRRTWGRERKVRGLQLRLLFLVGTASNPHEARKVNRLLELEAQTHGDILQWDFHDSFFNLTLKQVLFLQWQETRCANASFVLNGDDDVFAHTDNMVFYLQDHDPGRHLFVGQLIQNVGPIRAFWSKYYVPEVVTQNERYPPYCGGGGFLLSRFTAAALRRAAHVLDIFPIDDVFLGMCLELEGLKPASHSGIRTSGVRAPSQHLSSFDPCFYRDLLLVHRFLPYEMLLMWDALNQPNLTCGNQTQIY
# Description: as §1, §2, §3, §4
# [4] = target: T4, β1,3-N-acetylglucosaminyl transferase (G4); test: Substrate specificity of G4 with pyridylaminated oligosaccharides; assay type: biochemical; settings: pyridylaminated substrate 50 μmol/l, 37° C., 14.5 hours, activity on LNnT defined as 100%
# Description: Examination on the substrate specificity of a β1,3-N-acetylglucosaminyl transferase (G4) was carried out by using the FLAG peptide-fused G4 polypeptide produced as a secreted form in Example 10.
# (§5) The method shown in Example 8 was used as the activity measuring method. Specifically, after the reaction at 37° C. for 14.5 hours in 30 μl of an assay solution [200 mmol/l of MOPS (pH 7.5), 20 mmol/l of UDP-GlcNAc (SIGMA), 20 mmol/l of MnCl2, 50 μmol/l of pyridylaminated sugar chain substrate and 15 μl of the above eluate], products were detected by HPLC. As substrates, LNnT, lacto-N-tetraose (Galβ1-3GlcNAcβ1-3Galβ1-4Glc, hereinafter referred to as “LNT”), lacto-N-fucopentaose II (Galβ1-3(Fucα1-4)GlcNAcβ1-3Galβ1-4Glc, hereinafter referred to as “LNFP-II”), lacto-N-fucopentaose III (Galβ1-4(Fucα1-3)GlcNAcβ1-3Galβ1-4Glc, hereinafter referred to as “LNFP-III”), lacto-N-fucopentaose V (Galβ1-3GlcNAcβ1-3Galβ1-4(Fucα1-3)Glc, hereinafter referred to as “LNFP-V”) and lacto-N-difucohexaose II (Galβ1-3(Fucα1-4)GlcNAcβ1-3Galβ1-4(Fucα1-3)Glc, hereinafter referred to as “LNDFH-II”) (all manufactured by Oxford Glycosystems) were used after fluorescently labeling them with aminopyridine. Fluorescence labeling of these substrates were carried out in accordance with the usual method [Agric. Biol. Chem., 54, 2169 (1990)].
# as §3
# (§6) The assay solution after completion of the reaction was treated at 100° C. for 5 minutes and then centrifuged at 10,000×g for 5 minutes, and a portion (5 μl) of the thus obtained supernatant was applied to HPLC.
# (§7) The HPLC was carried out by using TSK-gel ODS-80Ts column (4.6×300 mm; Tosoh); 0.02 mol/l ammonium acetate buffer (pH 4.0) was used as the eluate at an elution temperature of 50° C. and at a flow rate of 0.5 ml/min.
# (§8) Products were detected by using a fluorescence spectrum photometer FP-920 (JASCO Corporation) (excitation wavelength 320 nm, radiation wavelength 400 nm).
# [5] = target: T3, β1,3-N-acetylglucosaminyl transferase (G7); test: Substrate specificity of G7 with pyridylaminated oligosaccharides; assay type: biochemical; settings: pyridylaminated substrate, 37° C., 16 hours, activity for LNnT defined as 100%
# Description: as §5, §3, §6, §7, §8
# Examination of the substrate specificity of a β1,3-N-acetylglucosaminyl transferase (G7) was carried out using the FLAG peptide-fused G7 polypeptide purified in Example 17.
# Substrate specificity of the FLAG peptide-fused G7 polypeptide was examined by the method shown in Example 11(1). The reaction was carried out at 37° C. for 16 hours.
# [6] = target: T2, β1,3-N-acetylglucosaminyl transferase (G3); test: Substrate specificity of G3 with pyridylaminated oligosaccharides; assay type: biochemical; settings: pyridylaminated substrate, 37° C., 2 hours, activity on LNnT defined as 100%
# Description: as §5, §3, §6, §7, §8
# Substrate specificity of a β1,3-N-acetylglucosaminyl transferase (G3) was examined using the FLAG peptide-fused G3 polypeptide purified in Example 14.
# Substrate specificity of the FLAG peptide-fused G3 polypeptide was examined by the method shown in Example 11(1). The reaction was carried out at 37° C. for 2 hours.
Molecule,Relative activity (%) β3GnT (β3GnT; Table 4) [%],Relative activity (%) β3GnT (β3GnT; Table 6) [%],Relative activity (%) G3 [1] [%],Relative activity (%) G7 [2] [%],Relative activity (%) [3] [%],Relative activity (%) [4] [%],Relative activity (%) [5] [%],Relative activity (%) [6] [%]
"OC[C@H]1O[C@@H](O[C@H]2[C@H](O)[C@@H](O)C(O)O[C@@H]2CO)[C@H](O)[C@@H](O)[C@H]1O (stereo partly shown) [Lactose, lactose]",67.1,67.1,128,32.6,235,,,
"CC(=O)N[C@H]1C(O)O[C@H](CO)[C@@H](O[C@@H]2O[C@H](CO)[C@H](O)[C@H](O)[C@H]2O)[C@@H]1O (stereo partly shown) [LacNAc, N-acetyllactosamine]",95.5,95.5,21,8.5,0,,,
"CC(=O)N[C@H]1[C@H](O[C@H]2[C@@H](O)[C@@H](CO)O[C@@H](O[C@@H]([C@H](O[C@@H]3O[C@@H](C)[C@@H](O)[C@@H](O)[C@@H]3O)[C@@H](O)C=O)[C@H](O)CO)[C@@H]2O)O[C@H](CO)[C@@H](O[C@@H]2O[C@@H](C)[C@@H](O)[C@@H](O)[C@@H]2O)[C@@H]1O[C@@H]1O[C@H](CO)[C@H](O)[C@H](O)[C@H]1O [LNDFH-II, lacto-N-difucohexaose II]",,,,,,0,0,0
"CC(=O)N[C@H]1[C@H](O[C@H]2[C@@H](O)[C@@H](CO)O[C@@H](O[C@@H]([C@H](O)[C@@H](O)C=O)[C@H](O)CO)[C@@H]2O)O[C@H](CO)[C@@H](O[C@@H]2O[C@@H](C)[C@@H](O)[C@@H](O)[C@@H]2O)[C@@H]1O[C@@H]1O[C@H](CO)[C@H](O)[C@H](O)[C@H]1O [LNFP-II, lacto-N-fucopentaose II]",,,,,,0,0,0
lacto-N-neohexaose [LNnH],,,132,0.05,45,,,
lacto-N-fucopentaose V [LNFP-V],,,,,,65.1,8.1,30.8
lacto-N-fucopentaose III [LNFP-III],,,,,,4.7,7.4,0
